Where “and” joins values, the source holds several entries; their conditions need not be identical. Equal entries are not always repeated. Where two headings read alike, the source gives them in different places. Non-standard residues stand in square brackets, D forms with d. Residues, ends and D or L forms follow the SMILES beside them. *: point of attachment. NH(3,5-(CF3)2-benzyl) = FC(F)(F)c1cc(CN*)cc(C(F)(F)F)c1; NMePhe(4-F) = CN[C@@H](Cc1ccc(F)cc1)C(=O)O; NMeF = CN[C@@H](Cc1ccccc1)C(=O)O

The results in this text go back to patent US11141452B2, “Bifunctional compounds for relief of pain comprising an opioid receptor agonist moiety and a NK1 receptor antagonist moiety and methods for treating pain” (THE ARIZONA BOARD OF REGENTS ON BEHALF OF THE UNIVERSITY OF …, priority 2014, dated 2021).

For series [1], the target named is DOR (Homo sapiens, UniProt P41143). As to the kind of experiment: Radioligand binding assay at δ opioid receptor. The note with it: for Ki: Ki^δ (nM). The protocol: (§1) Binding affinities of these ligands were measured on radioligand binding assays. […] ([43]).
Chain of DOR (Homo sapiens, UniProt P41143) (P41143 whole entry): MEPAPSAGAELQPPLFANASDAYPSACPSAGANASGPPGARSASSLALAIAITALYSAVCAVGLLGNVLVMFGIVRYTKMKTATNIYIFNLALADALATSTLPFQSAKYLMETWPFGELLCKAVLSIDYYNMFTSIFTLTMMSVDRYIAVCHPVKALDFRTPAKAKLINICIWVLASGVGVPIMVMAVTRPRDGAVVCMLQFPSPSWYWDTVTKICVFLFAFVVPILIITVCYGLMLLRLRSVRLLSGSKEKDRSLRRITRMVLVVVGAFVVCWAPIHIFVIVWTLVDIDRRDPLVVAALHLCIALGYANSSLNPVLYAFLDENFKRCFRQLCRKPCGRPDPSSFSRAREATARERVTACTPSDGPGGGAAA
A further series has as its target T1, hNK1 (Homo sapiens, UniProt P25103).
T1 construct: expressed in transfected cells; host or cells: CHO
The series is described as follows: hNK1/CHO cell membrane radioligand binding assay ([3H]SP). The note with it: for Ki: Ki^hNK1 (nM), hNK1/CHO membranes, [3H]SP; for Ki^hNK1/Ki^rNK1: ratio human/rat NK1.

Another series is described as follows: in vitro. The note with it: rat, plasma.
Series [2] deals with MOR. As to the kind of experiment: Guinea pig isolated ileum (GPI) functional assay. It counts as cell-based.
The next series concerns the target T2, NK1R (Cavia porcellus, UniProt P30547).
T2 construct: The longitudinal muscle with myenteric plexus (LMMP) was carefully separated from the circular muscle; from tissue; host or cells: guinea pig ileum longitudinal muscle with myenteric plexus
The series is described as follows: GPI/LMMP functional assay at NK1R (agonist and antagonist testing). Format: cell-based, guinea pig. The settings on record: for GPI/LMMP (NK1R) Agonist: agonist activity at the concentration in the cell; for Kb: antagonist activity.

For series [3], the target named is MOR. As to the kind of experiment: Radioligand binding assay at μ opioid receptor. The settings on record: for Log[IC50±] (μ): log IC50 ± error; for Ki^μ/Ki^δ: ratio of binding affinities MOR/DOR. The protocol: as §1
Series [4] concerns the target T3, DOR (Mus musculus, UniProt P32300).
T3 construct: Male ICR mice under CO2 anesthesia were sacrificed by cervical dislocation and the vasa differentia removed; from tissue; host or cells: mouse vas deferens (ICR mice)
The series is described as follows: Mouse isolated vas deferens (MVD) functional assay. It counts as cell-based. The settings on record: for IC50: MVD (DOR) IC50 (nM), agonist activity, electrically stimulated tissue.

Series [5] relates to mice (acute thermal pain, tail flick). The series is described as follows: Tail flick latency, 52° C. water bath, after intrathecal injection. Format: in vivo, mouse. (Hot-plate and tail-flick tests time the reaction to a heat stimulus.)
Description: Tail flick latencies were re-assessed at up to 8 time points after administration. […] Mice with baseline TFLs<3 s or >9 s were excluded from the study.
For both studies, maximal percent efficacy was calculated and expressed as: % Antinociception=100*(test latency after drug treatment−baseline latency)/(cutoff−baseline latency) Statistics: Between group data were analyzed by non-parametric two-way analysis of variance (ANOVA; post hoc. Neuman-Kuels) in FlashCalc (Dr. Michael H. Ossipov, University of Arizona, Tucson, Ariz., USA). Within group data were analyzed by non-parametric one-way analysis of variance (ANOVA; post hoc: Bonferroni) in FlashCalc (Dr. Michael H. Ossipov, University of Arizona, Tucson, Ariz., USA). Differences were considered to be significant if P≤0.05.
A further series addresses rNK1 (Rattus norvegicus, UniProt P14600). As to the kind of experiment: Radioligand binding assay at rat NK1 receptor. The settings on record: Ki^rNK1 (nM). The protocol: as §1
The test system of series [6] is rats (acute thermal pain, paw withdrawal reflex).
Where [7] appears, read: agonist activity, electrically stimulated tissue, read-out: GPI (MOR) IC50.
[8] abbreviates: read-out: GPI/LMMP (NK1R) Ke (nM) ± S.E.M.
[9] abbreviates: head of Table IX, read-out: GPI (MOR) ID50.
Setting [10] is: GPI/LMMP (NK1R) Ke (nM) ± S.E.M.

T2 sequence (P30547 whole entry): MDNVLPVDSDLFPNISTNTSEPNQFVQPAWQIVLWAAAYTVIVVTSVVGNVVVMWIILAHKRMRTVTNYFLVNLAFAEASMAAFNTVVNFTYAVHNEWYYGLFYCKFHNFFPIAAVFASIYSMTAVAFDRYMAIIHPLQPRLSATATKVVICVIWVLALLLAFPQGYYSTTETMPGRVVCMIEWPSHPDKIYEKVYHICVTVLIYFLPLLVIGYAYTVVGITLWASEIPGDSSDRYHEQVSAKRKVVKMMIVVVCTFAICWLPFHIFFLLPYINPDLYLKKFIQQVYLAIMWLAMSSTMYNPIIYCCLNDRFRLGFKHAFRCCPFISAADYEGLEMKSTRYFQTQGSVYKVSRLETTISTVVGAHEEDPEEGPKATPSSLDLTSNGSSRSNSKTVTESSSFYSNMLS
T1 sequence (P25103 whole entry): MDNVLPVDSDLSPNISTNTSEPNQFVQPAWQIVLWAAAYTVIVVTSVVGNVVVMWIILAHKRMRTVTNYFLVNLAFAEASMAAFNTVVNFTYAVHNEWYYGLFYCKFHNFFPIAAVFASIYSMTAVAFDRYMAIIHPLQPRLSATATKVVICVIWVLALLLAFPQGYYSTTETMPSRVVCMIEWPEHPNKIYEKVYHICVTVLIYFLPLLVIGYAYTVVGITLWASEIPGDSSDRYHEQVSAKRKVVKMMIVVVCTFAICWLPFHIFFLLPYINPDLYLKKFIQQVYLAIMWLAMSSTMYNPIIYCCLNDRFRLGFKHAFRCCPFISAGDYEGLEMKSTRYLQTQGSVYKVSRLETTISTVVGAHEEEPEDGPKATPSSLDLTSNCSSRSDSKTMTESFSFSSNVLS
Chain of rNK1 (P14600 whole entry): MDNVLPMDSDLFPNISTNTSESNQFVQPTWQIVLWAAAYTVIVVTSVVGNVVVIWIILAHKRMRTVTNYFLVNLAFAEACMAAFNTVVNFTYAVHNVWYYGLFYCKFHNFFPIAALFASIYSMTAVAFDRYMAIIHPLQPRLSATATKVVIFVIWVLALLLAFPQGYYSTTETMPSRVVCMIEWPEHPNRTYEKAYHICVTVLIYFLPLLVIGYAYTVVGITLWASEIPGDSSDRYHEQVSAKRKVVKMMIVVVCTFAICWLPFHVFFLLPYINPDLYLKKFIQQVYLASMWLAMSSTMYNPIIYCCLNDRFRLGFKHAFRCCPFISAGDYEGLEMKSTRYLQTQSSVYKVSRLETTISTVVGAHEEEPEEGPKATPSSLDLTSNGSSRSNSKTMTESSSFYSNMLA
T3 sequence (P32300 whole entry): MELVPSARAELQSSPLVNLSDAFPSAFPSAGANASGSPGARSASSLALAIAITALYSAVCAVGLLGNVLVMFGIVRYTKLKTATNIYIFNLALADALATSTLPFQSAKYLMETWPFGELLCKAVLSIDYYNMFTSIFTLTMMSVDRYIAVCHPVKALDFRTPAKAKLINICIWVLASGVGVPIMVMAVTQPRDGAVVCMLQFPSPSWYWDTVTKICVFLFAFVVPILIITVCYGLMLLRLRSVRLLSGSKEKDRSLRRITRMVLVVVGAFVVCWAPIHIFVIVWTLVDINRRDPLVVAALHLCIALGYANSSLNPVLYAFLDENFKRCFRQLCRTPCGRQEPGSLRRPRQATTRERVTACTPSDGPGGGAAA

What is called Ki is the equilibrium dissociation constant of an inhibitor or competing ligand from its target. For orientation: half-life means how long it takes for the measured level to halve. Read a low half-life as rapid decline. Turning to `CC(C)C[C@H](NC(=O)[C@@H]1CCCN1C(=O)[C@H](Cc1ccc(F)cc1)NC(=O)CNC(=O)[C@@H](C)NC(=O)[C@@H](N)Cc1ccc(O)cc1)C(=O)N[C@@H](Cc1c[nH]c2ccccc12)C(=O)NCc1cc(C(F)(F)F)cc(C(F)(F)F)c1` [AKG190, H-Tyr-D-Ala-Gly-Phe(4-F)-Pro-Leu-Trp-NH-Bn(3′,5′-(CF3)2)], on DOR [1], the “binding selectivity for DOR over MOR” value came out at 20 times and the affinity corresponds to a Ki of 0.2 nM. Besides, on hNK1, the Ki turned out to be 5.61 ± 0.65 nM and the “Ki^hNK1/Ki^rNK1” value was 1/6. The same molecule showed a half-life in the series “in vitro” below 2 h. In the series with MOR [2] (setting [7]), the IC50 is 65 nM and 64.8 nM. In addition, on NK1R, the “GPI/LMMP (NK1R) Agonist” value was “None at 30 nM”. Further, at MOR [3], the inhibition constant (Ki) came to 4 nM, the “Log[IC50±] (μ)” value was −8.08 ± 0.10 and the “Ki^μ/Ki^δ” value was 20/1. Besides, on DOR [4], the “higher agonist activity at DOR compared to MOR (functional assays)” value was determined as 5 times and the IC50 came out at 12.1 ± 4 nM.

Take `Cc1cc(O)cc(C)c1C[C@H](N)C(=O)N[C@H](C)C(=O)NCC(=O)N[C@@H](Cc1ccc(F)cc1)C(=O)N1CCC[C@H]1C(=O)N[C@@H](CC(C)C)C(=O)N[C@@H](Cc1c[nH]c2ccccc12)C(=O)NCc1cc(C(F)(F)F)cc(C(F)(F)F)c1` [AKG127, H-Dmt-D-Ala-Gly-Phe(4-F)-Pro-Leu-Trp-NH-Bn(3′,5′-(CF3)2)]: on hNK1, the Ki worked out at 1 nM and the “Ki^hNK1/Ki^rNK1” value is 1/33. The molecule also registered a half-life in the series “in vitro” above 24 h. Also, the IC50 in the series with MOR [2] (setting [7]) was 42 nM and 41.6 nM. The “GPI/LMMP (NK1R) Agonist” value on NK1R is “None at 30 nM”. The Kb on NK1R (setting [8]) was 5.3 nM. In addition, on MOR [3], the Ki was 1 nM, the “Log[IC50±] (μ)” value was −8.72 ± 0.08 and the “Ki^μ/Ki^δ” value is reported as 1/1. For the same molecule, at DOR [4], the “higher agonist activity at DOR compared to MOR (functional assays)” value was found to be 21 times; the IC50 is 1.9 nM and 1.96 nM. The “maximal level of antinociception (% antinociception)” value in [5] (0.1 μg i.t.) is “approximately 70%”. Further, in [5] (0.1 μg in 5 μl, i.t., 60 min after injection), the “tail flick latencies (TFLs)” value was “significantly higher than vehicle-treated mice and baseline values”. Also, the Ki at rNK1 is 29.4 ± 1.5 nM.

In the case of `Cc1cc(O)cc(C)c1C[C@H](N)C(=O)N[C@H](C)C(=O)NCC(=O)N(C)[C@@H](Cc1ccccc1)C(=O)N1CCC[C@H]1C(=O)N[C@@H](CC(C)C)C(=O)N[C@@H](Cc1c[nH]c2ccccc12)C(=O)NCc1cc(C(F)(F)F)cc(C(F)(F)F)c1` [AKG115, H-Dmt-D-Ala-Gly-NMePhe-Pro-Leu-Trp-NH-Bn(3′,5′-(CF3)2)], the IC50 on DOR [1] was 12 nM; with MOR [2] (setting [7]), 21 nM and 20.6 nM; at DOR [4], 30.7 ± 7.5 nM. Besides, the half-life in the series “in vitro” is above 24 h. The Kb at NK1R (setting [8]) was found to be 9.7 nM. The molecule further showed a Ki at MOR [3] of 1 nM. Further, the “Log[IC50±] (μ)” value on MOR [3] is on record as −8.78 ± 0.05. For the same molecule, in [6] (0.1 μg i.t.), the “maximal level of antinociception” value was “minimal”. For the same molecule, in [6] (10 μg in 5 μl), the motor skills entry was “motor skills were impaired”. For the same molecule, the “Paw withdrawal latencies (PWLs)” value in [6] (spinal 0.1 μg in 5 μL, 60 min after the injection) is “not significantly higher than vehicle-treated rats and baseline values”.

With `CSCC[C@H](NC(=O)[C@H](Cc1ccccc1)NC(=O)CNC(=O)[C@@H](C)NC(=O)[C@@H](N)Cc1c(C)cc(O)cc1C)C(=O)N1CCC[C@H]1C(=O)N[C@@H](CC(C)C)C(=O)N[C@@H](Cc1c[nH]c2ccccc12)C(=O)NCc1cc(C(F)(F)F)cc(C(F)(F)F)c1` [TY032, H-Dmt-D-Ala-Gly-Phe-Met-Pro-Leu-Trp-NH-Bn(3′,5′-(CF3)2), reference compound], the half-life in the series “in vitro” is above 6 h.

With `CC(C)C[C@H](NC(=O)[C@@H]1CCCN1C(=O)[C@H](CO)NC(=O)[C@H](Cc1ccc(F)cc1)N(C)C(=O)CNC(=O)[C@@H](C)NC(=O)[C@@H](N)Cc1ccc(O)cc1)C(=O)N[C@@H](Cc1c[nH]c2ccccc12)C(=O)NCc1cc(C(F)(F)F)cc(C(F)(F)F)c1` [AKG134] (H-Y[dA]G[NMePhe(4-F)]SPLW-{NH(3,5-(CF3)2-benzyl)}), the results for the IC50 at DOR [1], in the series on MOR [2] (setting [9]) and on DOR [4] were 14.5 nM, 184 ± 30.9 nM and 8.94 ± 0.795 nM, respectively. The inhibitory constant (Ki) is 7 nM at DOR [1], 7.95 ± 0.87 nM at hNK1, 2 nM at MOR [3] and 50.2 ± 16.9 nM at rNK1. In addition, the “Ki^hNK1/Ki^rNK1” value on hNK1 is 1/6. Besides, the “GPI/MVD IC50 ratio” value in the series with MOR [2] was 21/1. At NK1R (setting [10]), this molecule registered a Kb of 1.86 ± 0.43 nM. The “GPI/LMMP (NK1R) Agonist” value on NK1R is listed as “None at 30 nM”. Further, the “Log[IC50±] (μ)” value on MOR [3] is −8.27 ± 0.11. In addition, the “Ki^μ/Ki^δ” value on MOR [3] is given as 1/4.

With `CC(C)C[C@H](NC(=O)[C@@H]1CCCN1C(=O)CNC(=O)[C@H](CO)NC(=O)[C@H](Cc1ccccc1)N(C)C(=O)CNC(=O)[C@@H](C)NC(=O)[C@@H](N)Cc1ccc(O)cc1)C(=O)N[C@@H](Cc1c[nH]c2ccccc12)C(=O)NCc1cc(C(F)(F)F)cc(C(F)(F)F)c1` [AKG-CRA-136] (H-Y[dA]G[NMeF]SGPLW-{NH(3,5-(CF3)2-benzyl)}), the IC50 at DOR [1] is 85.1 nM; in the series on MOR [2] (setting [9]), 108 ± 44.8 nM; on DOR [4] it was 22.6 ± 2.07 nM. Besides, the inhibition constant (Ki) stood at 38 nM on DOR [1], 9.23 ± 1.38 nM on hNK1, 3 nM at MOR [3] and 156 ± 2.33 nM on rNK1. Further, the “Ki^hNK1/Ki^rNK1” value at hNK1 is listed as 1/17. Further, the “GPI/MVD IC50 ratio” value in the series with MOR [2] was 5/1. For the same molecule, the Kb on NK1R (setting [10]) is 27.6 ± 2.9 nM. For the same molecule, the “GPI/LMMP (NK1R) Agonist” value on NK1R is listed as “None at 100 nM”. Further, on MOR [3], the “Log[IC50±] (μ)” value was −8.07 ± 0.18. Further, the “Ki^μ/Ki^δ” value at MOR [3] is 1/9.

Turning to `CC(C)C[C@H](NC(=O)[C@@H]1CCCN1C(=O)CNC(=O)[C@H](Cc1ccc(F)cc1)N(C)C(=O)CNC(=O)[C@@H](C)NC(=O)[C@@H](N)Cc1ccc(O)cc1)C(=O)N[C@@H](Cc1c[nH]c2ccccc12)C(=O)NCc1cc(C(F)(F)F)cc(C(F)(F)F)c1` [AKG131, H-Tyr-D-Ala-Gly-NMePhe(4-F)-Gly-Pro-Leu-Trp-NH-Bn(3′,5′-(CF3)2)] (H-Y[dA]G[NMePhe(4-F)]GPLW-{NH(3,5-(CF3)2-benzyl)}), the IC50 at DOR [1] was 38 nM; in the series on MOR [2] (setting [7]), 63 nM and 62.5 nM; at DOR [4], 30 nM and 29.7 nM. Also, the Ki is 17 nM on DOR [1], 2 nM at hNK1 and 89 nM at rNK1. For the same molecule, the “Ki^hNK1/Ki^rNK1” value at hNK1 is 1/8. The “GPI/MVD IC50 ratio” value in the series on MOR [2] is 2/1. Moreover, the Kb at NK1R (setting [10]) was 35.8 ± 10.8 nM. The “GPI/LMMP (NK1R) Agonist” value at NK1R is given as “None at 100 nM”. The “Log[IC50±] (μ)” value at MOR [3] was −6.40 ± 0.32. The “Ki^μ/Ki^δ” value on MOR [3] is on record as 11/1.
